How the values were obtained:
umbrella sedge = assay: Test C flooded paddy test; assay type: in vivo, Cyperus difformis; conditions: Flood
Text: (§1) At time of treatment, test pots were flooded to 3 cm above the soil surface, treated by application of test compounds directly to the paddy water, and then maintained at that water depth for the duration of the test. Treated plants and controls were maintained in a greenhouse for 13 to 15 days, after which time all species were compared to controls and visually evaluated. […] A dash (-) response means no test result.

redroot pigweed = assay: Test A pre-/postemergence greenhouse test; assay type: in vivo, Amaranthus retroflexus; conditions: for Pigweed plant response rating: 0 to 100 scale
Method in brief: (§2)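 Two application timings were run side by side in the greenhouse. Before emergence, compound went onto the soil surface of loam–sand pots as a directed spray; after emergence, plants at 2–10 cm and the one- to two-leaf stage were treated. Visual injury versus controls was rated at approximately day ten.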

corn = assay: Test A pre-/postemergence greenhouse test; assay type: in vivo, Zea mays; conditions: for Corn plant response rating: 0 to 100 scale
Method in brief: as §2

rice = assay: Test C flooded paddy test; assay type: in vivo, Oryza sativa; conditions: Flood
Text: as §1

crabgrass = assay: Test A pre-/postemergence greenhouse test; assay type: in vivo, Digitaria sanguinalis; conditions: for Crabgrass, Large plant response rating: 0 to 100 scale
Method in brief: as §2

barnyardgrass [1] = assay: Test C flooded paddy test; assay type: in vivo, Echinochloa crus-galli; conditions: Flood
Text: as §1

morningglory = assay: Test A pre-/postemergence greenhouse test; assay type: in vivo, Ipomoea spp.; conditions: for Morningglory plant response rating: 0 to 100 scale
Method in brief: as §2

wheat = assay: Test A pre-/postemergence greenhouse test; assay type: in vivo, Triticum aestivum; conditions: for Wheat plant response rating: 0 to 100 scale
Method in brief: as §2

barnyardgrass [2] = assay: Test A pre-/postemergence greenhouse test; assay type: in vivo, Echinochloa crus-galli; conditions: for Barnyardgrass plant response rating: 0 to 100 scale
Method in brief: as §2

velvetleaf = assay: Test A pre-/postemergence greenhouse test; assay type: in vivo, Abutilon theophrasti; conditions: for Velvetleaf plant response rating: 0 to 100 scale
Method in brief: as §2

giant foxtail = assay: Test A pre-/postemergence greenhouse test; assay type: in vivo, Setaria faberi; conditions: for Foxtail, Giant plant response rating: 0 to 100 scale
Method in brief: as §2

duck salad = assay: Test C flooded paddy test; assay type: in vivo, Heteranthera limosa; conditions: Flood
Text: as §1

[3] = 31 g ai/ha, scale 0 to 100 (0 no effect, 100 complete control)
[4] = 62 g ai/ha, scale 0 to 100, 0 no effect, 100 complete control, 13 to 15 days
[5] = 125 g ai/ha, scale 0 to 100, 0 no effect, 100 complete control, 13 to 15 days
[6] = Postemergence, 125 g ai/ha, 0 is no effect, 100 is complete control
[7] = Postemergence, 500 g ai/ha, 0 is no effect, 100 is complete control
[8] = Preemergence, 125 g ai/ha, 0 no effect, 100 complete control
[9] = Preemergence, 500 g ai/ha, 0 to 100 scale where 0 is no effect and 100 is complete control
[10] = 250 g ai/ha, scale 0 to 100 (0 no effect, 100 complete control)

CC(c1c(C(F)(F)F)nn(C)c1OC(F)F)S(=O)(=O)c1ccc(Br)c[n+]1[O-] (racemic) [Compound 23]
Plant response rating, Sedge, Umbrella (umbrella sedge; [3]): 0
Plant response rating, Sedge, Umbrella (umbrella sedge; [4]): 55
Plant response rating, Sedge, Umbrella (umbrella sedge; [5]): 75
Plant response rating, Sedge, Umbrella (umbrella sedge; 250 g ai/ha, scale 0 to 100, 0 no effect, 100 complete control, 13 to 15 days): 75
Pigweed plant response rating (redroot pigweed; [6]): 0
Pigweed plant response rating (redroot pigweed; [7]): 50
Pigweed plant response rating (redroot pigweed; [8]): 100
Plant response rating, Pigweed (redroot pigweed; [9]): 100
Corn plant response rating (corn; [6]): 0
Corn plant response rating (corn; [7]): 0
Corn plant response rating (corn; [8]): 0
Plant response rating, Corn (corn; [9]): 0
Plant response rating, Rice (rice; [3]): 0
Plant response rating, Rice (rice; [4]): 70
Plant response rating, Rice (rice; [5]): 70
Plant response rating, Rice (rice; [10]): 70
Crabgrass, Large plant response rating (crabgrass; [6]): 40
Crabgrass, Large plant response rating (crabgrass; [7]): 50
Crabgrass, Large plant response rating (crabgrass; [8]): 60
Plant response rating, Crabgrass, Large (crabgrass; [9]): 90
Plant response rating, Barnyardgrass (barnyardgrass [1]; [3]): 0
Plant response rating, Barnyardgrass (barnyardgrass [1]; [4]): 45
Plant response rating, Barnyardgrass (barnyardgrass [1]; [5]): 60
Plant response rating, Barnyardgrass (barnyardgrass [1]; [10]): 70
Morningglory plant response rating (morningglory; [6]): 0
Morningglory plant response rating (morningglory; [7]): 0
Morningglory plant response rating (morningglory; [8]): 0
Plant response rating, Morningglory (morningglory; [9]): 0
Wheat plant response rating (wheat; [6]): 0
Wheat plant response rating (wheat; [7]): 0
Wheat plant response rating (wheat; [8]): 0
Plant response rating, Wheat (wheat; [9]): 0
Barnyardgrass plant response rating (barnyardgrass [2]; [6]): 0
Barnyardgrass plant response rating (barnyardgrass [2]; [7]): 0
Barnyardgrass plant response rating (barnyardgrass [2]; [8]): 40
Plant response rating, Barnyardgrass (barnyardgrass [2]; [9]): 90
Velvetleaf plant response rating (velvetleaf; [6]): 0
Velvetleaf plant response rating (velvetleaf; [7]): 0
Velvetleaf plant response rating (velvetleaf; [8]): 0
Plant response rating, Velvetleaf (velvetleaf; [9]): 0
Foxtail, Giant plant response rating (giant foxtail; [6]): 0
Foxtail, Giant plant response rating (giant foxtail; [7]): 40
Foxtail, Giant plant response rating (giant foxtail; [8]): 30
Plant response rating, Foxtail, Giant (giant foxtail; [9]): 80
Plant response rating, Ducksalad (duck salad; [3]): 0
Plant response rating, Ducksalad (duck salad; [4]): 60
Plant response rating, Ducksalad (duck salad; [5]): 70
Plant response rating, Ducksalad (duck salad; [10]): 80
